Test results as given in patent US9840478B2 (MERCK SHARP & DOHME CORP., priority 2013, dated 2017).
pIC50: −log10 of the molar value.

System: HIV-1 (H9IIIB strain)
Assay: Cell-based HIV infection assay using a reporter (Cell-Based), MT4-GFP cells
Settings: Human immunodeficiency virus 1, MT4-GFP cells infected with HIV-1 H9IIIB; 50% normal human serum; mean of at least two independent experiments; read-out: Cell-based IP
Protocol: Cell-Based HIV Infection Assay Using a Reporter (“Cell-Based”):
MT4-GFP cells contain a stably integrated HIV long terminal repeat promoter directing the transcription of green fluorescent protein (GFP). When HIV infects the cell, GFP is produced and the cell becomes green. MT4-GFP cells (250,000 cells/ml) were bulk-infected with HIV-1 (H9IIIB strain) at low multiplicity of infection (MOI) in RPMI media, supplemented with 10% FBS for 24 hours. Cells were then washed once in RPMI plus 10% FBS and resuspended in RPMI plus 50% normal human serum (NHS). Test compounds were serial-diluted in DMSO using an ECHO liquid dispenser. A control well included a combination of three HIV drugs (an inhibitor of HIV protease, integrase strand transfer and a non-nucleoside reverse transcriptase inhibitor; triple drug). The infected MT4-GFP cells were added to a 384-well poly-D-lysine coated black plate with clear bottom in which the diluted test compounds were placed. The cells were seeded in the plate at 8,000 cells per well and the final DMSO concentration was 0.4%. Infected cells were quantified at both 24 and 48 hours post incubation using an Acumen eX3 plate reader. Viral reproductive ratio (R0) was determined using the number of infected cells at 48 hours divided by the number of infected cells at 24 hours. Percent viral growth inhibition was calculated by [1−(R−Rtripledrug)/(RDMSO−Rtripledrug)]*100. Compound potency IP or IC50 was determined with use of a 4-parameter dose response curve analysis.

Row | SMILES | pIC50
1 | COC(=O)N[C@H](C(=O)Nc1cncc(F)c1CC[C@H]1CNC[C@H](C)N1S(=O)(=O)c1ccccc1)[C@@H](c1ccc(Cl)cc1)C(C)C [Example 8, Methyl ((2S,3R)-3-(4-chlorophenyl)-1-((5-fluoro-4-(2-((2S,6S)-6-methyl-1-(phenylsulfonyl)piperzin-2-yl)ethyl)pyridin-3-yl)amino)-4-methyl-1-oxopentan-2-yl)carbamate] | 8.01
2 | COc1ccc(S(=O)(=O)N2[C@@H](CCc3c(F)cncc3NC(=O)[C@@H](N)[C@@H](c3ccc(Cl)cc3)C3CCOCC3)CNC[C@@H]2C)cc1 [Example 9, (2S,3R)-2-Amino-3-(4-chlorophenyl)-N-(5-fluoro-4-(2-((2S,6S)-1-((4-methoxyphenyl)sulfonyl)-6-methylpiperazin-2-yl)ethyl)pyridin-3-yl)-3-(tetrahydro-2H-pyran-4-yl)propanamide] | 8.15
3 | C[C@H]1CNC[C@H](CCc2c(F)cccc2NC(=O)[C@@H](N)C(c2cccc(F)c2)c2cccc(F)c2)N1S(=O)(=O)c1ccccc1 [Example 10, (S)-2-Amino-N-(3-fluoro-2-(2-((2S,6S)-6-methyl-1-(phenylsulfonyl)piperazin-2-yl)ethyl)phenyl)-3,3-bis(3-fluorophenyl)propanamide] | 7.96
4 | COC(=O)N[C@H](C(=O)Nc1cncc(F)c1CC[C@H]1CNC[C@H](C)N1S(=O)(=O)C1CC1)[C@@H](c1ccc(Cl)cc1)c1cccc(F)c1 [Example 11, Methyl ((1S,2S)-1-(4-chlorophenyl)-3-((4-(2-((2S,6S)-1-(cyclopropylsulfonyl)-6-methylpiperazin-2-yl)ethyl)-5-fluoropyridin-3-yl)amino)-1-(3-fluorophenyl)-3-oxopropan-2-yl)carbamate] | 7.96
5 | COC(=O)N[C@H](C(=O)Nc1cccc(F)c1CC[C@H]1CNC[C@H](C)N1S(=O)(=O)C1CC1)[C@@H](c1ccc(Cl)cc1)C1CCOCC1 [Example 12, Methyl (1R,2S)-1-(4-chlorophenyl)-3-(2-(2-((2S,6S)-1-(cyclopropylsulfonyl)-6-methylpiperazin-2-yl)ethyl)-3-fluorophenylamino)-3-oxo-1-(tetrahydro-2H-pyran-4-yl)propan-2-ylcarbamate] | 7.74
6 | C[C@@H]1CNC[C@H](CCc2c(F)cncc2NC(=O)[C@@H](N)[C@@H](c2ccc(F)cc2)c2cc(F)cc(F)c2)N1S(=O)(=O)c1ccccc1 [Example 13, (βS)-β-(3,5-difluorophenyl)-4-fluoro-N-(5-fluoro-4-{2-[(2S,6R)-6-methyl-1-(phenylsulfonyl)piperazin-2-yl]ethyl}pyridin-3-yl)-L-phenylalaninamide] | 7.70
7 | COc1ccc([C@H](c2ccc(Cl)cc2)[C@H](N)C(=O)Nc2cccc(F)c2CC[C@H]2CNC[C@@H](C)N2S(=O)(=O)c2ccccc2)cn1 [Example 14, (βS)-4-chloro-N-(3-fluoro-2-{2-[(2S,6R)-6-methyl-1-(phenylsulfonyl)piperazin-2-yl]ethyl}phenyl)-β-(6-methoxypyridin-3-yl)-L-phenylalaninamide] | 7.74
8 | C[C@@H]1CNC[C@H](CCc2c(F)cncc2NC(=O)[C@@H](N)[C@@H](c2ccc(F)cc2)c2cc(F)cc(F)c2)N1S(=O)(=O)C1CC1 [Example 15, (βS)—N-(4-{2-[(2S,6R)-1-(cyclopropylsulfonyl)-6-methylpiperazin-2-yl]ethyl}-5-fluoropyridin-3-yl)-β-(3,5-difluorophenyl)-4-fluoro-L-phenylalaninamide] | 7.74
9 | COc1ccc(S(=O)(=O)N2[C@@H](CCc3c(F)cccc3NC(=O)[C@@H](N)[C@@H](c3ccc(F)cc3)c3cc(F)cc(F)c3)CNC[C@H]2C)cc1 [Example 16, (βS)-β-(3,5-difluorophenyl)-4-fluoro-N-[3-fluoro-2-(2-{(2S,6R)-1-[(4-methoxyphenyl)sulfonyl]-6-methylpiperazin-2-yl}ethyl)phenyl]-L-phenylalaninamide] | 8.27
10 | COC(=O)N[C@H](C(=O)Nc1cncc(F)c1CC[C@H]1CNC[C@@H](C)N1S(=O)(=O)c1ccccc1)[C@@H](c1ccc(Cl)cc1)C(C)C [Example 17, (βR)-4-chloro-N-(5-fluoro-4-{2-[(2S,6R)-6-methyl-1-(phenylsulfonyl)piperazin-2-yl]ethyl}pyridin-3-yl)-Nα-(methoxycarbonyl)-β-(1-methylethyl)-L-phenylalaninamide] | 8.36
11 | COC(=O)N[C@H](C(=O)Nc1cccc(F)c1CC[C@H]1CNC[C@@H](C)N1S(=O)(=O)c1ccc(F)cc1)[C@@H](c1ccc(Cl)cc1)C1CCOCC1 [Example 18, Methyl ((1R,2S)-1-(4-chlorophenyl)-3-((3-fluoro-2-(2-((2S,6R)-1-((4-fluorophenyl)sulfonyl)-6-methylpiperazin-2-yl)ethyl)phenyl)amino)-3-oxo-1-(tetrahydro-2H-pyran-4-yl)propan-2-yl)carbamate] | 8.07
12 | COC(=O)N[C@H](C(=O)Nc1cccc(F)c1CC[C@H]1CNCC2(CC2)CN1S(=O)(=O)c1ccccc1)[C@@H](c1ccc(Cl)cc1)c1ccc(OC)nc1 [Example 19, Methyl ((1S,2S)-1-(4-chlorophenyl)-3-((3-fluoro-2-(2-((S)-5-phenylsulfonyl)-5,8-diazaspiro[2.6]nonan-6-yl)ethyl)phenylamino)-1-(6-methoxypyridin-3-yl)-3-oxopropan-2-yl)carbamate 2,2,2-trifluoroacetate] | 7.80
13 | COC(=O)N[C@H](C(=O)Nc1cccc(F)c1CC[C@H]1CNCC2(CC2)CN1S(=O)(=O)c1ccccc1)[C@@H](c1ccc(F)cc1)C1CCOCC1 [Example 20, Methyl ((2S,3R)-1-((3-fluoro-2-(2-((S)-5-(phenylsulfonyl)-5,8-diazaspiro[2.6]nonan-6-yl)ethyl)phenyl)amino)-3-(4-fluorophenyl)-1-oxo-3-(tetrahydro-2H-pyran-4-yl)propan-2-yl)carbamate] | 7.68
14 | N[C@H](C(=O)Nc1cncc(F)c1CC[C@H]1CNCCN1S(=O)(=O)CC1CC1)[C@@H](c1ccc(F)cc1)c1cc(F)cc(F)c1 [Example 28, (βS)-N-[4-(2-{(2S)-1-[(cyclopropylmethyl)sulfonyl]piperazin-2-yl}ethyl)-5-fluoropyridin-3-yl]-3,5-difluoro-β-(4-fluorophenyl)-L-phenylalaninamide] | 7.68
15 | Nc1ccc(S(=O)(=O)N2CCNC[C@@H]2CCc2c(F)cncc2NC(=O)[C@@H](N)[C@@H](c2ccc(F)cc2)c2cc(F)cc(F)c2)cn1 [Example 29, (βS)-N-[4-(2-{(2S)-1[(6-aminopyridin-3-yl)sulfonyl]piperazin-2-yl}ethyl)-5-fluoropyridin-3-yl]-3,5-difluoro-β-(4-fluorophenyl)-L-phenylalaninamide] | 6.28
16 | N[C@H](C(=O)Nc1cncc(F)c1CC[C@H]1CNCCN1S(=O)(=O)c1ccccc1)[C@@H](c1ccc(F)cc1)c1cc(F)cc(F)c1 [Example 30, (βS)-β-(3,5-difluorophenyl)-4-fluoro-N-(5-fluoro-4-{2-[(2S)-1-(phenylsulfonyl)piperazin-2-yl]ethyl}pyridin-3-yl)-L-phenylalaninamide] | 8.03
17 | N[C@H](C(=O)Nc1cccc(F)c1CC[C@@H]1CNCCN1S(=O)(=O)c1ccccc1)C(c1ccc(F)cc1)c1ccc(F)cc1 [Example 31, (S)-2-amino-N-(3-fluoro-2-(2-((R)-1-(phenylsulfonyl)piperazin-2-yl)ethyl)phenyl)-3,3-bis(4-fluorophenyl) propanamide] | 6.07
18 | N[C@H](C(=O)Nc1cccc(F)c1CC[C@H]1CNCCN1S(=O)(=O)c1ccccc1)C(c1ccc(F)cc1)c1ccc(F)cc1 [Example 32, (S)-2-amino-N-(3-fluoro-2-(2-((S)-1-(phenylsulfonyl)piperazin-2-yl)ethyl)phenyl)-3,3-bis(4-fluorophenyl) propanamide] | 8.18
19 | N[C@H](C(=O)Nc1cncc(F)c1CC[C@H]1CNCCN1S(=O)(=O)C1CC1)[C@@H](c1ccc(F)cc1)c1cc(F)cc(F)c1 [Example 33, (βS)-N-(4-{2-[(2S)-1-(cyclopropylsulfonyl)piperazin-2-yl]ethyl}-5-fluoropyridin-3-yl)-3,5-difluoro-β-(4-fluorophenyl)-L-phenylalaninamide] | 7.60
20 | N[C@H](C(=O)Nc1cccc(F)c1CCC1CNCCN1S(=O)(=O)c1ccccc1)C(c1cc(F)cc(F)c1)c1cc(F)cc(F)c1 (stereo partly drawn) [Example 34, β-(3,5-difluorophenyl)-3,5-difluoro-N-(3-fluoro-2-{2-[1-(phenylsulfonyl)piperazin-2-yl]ethyl}phenyl)-L-phenylalaninamide] | 7.80
21 | N[C@H](C(=O)Nc1cncc(F)c1CC[C@H]1CNCCN1S(=O)(=O)c1ccccc1)[C@@H](c1ccc(Cl)cc1)c1cccc(F)c1 [Example 35, (βS)-4-chloro-β-(3-fluorophenyl)-N-(5-fluoro-4-{2-[(2S)-1-(phenylsulfonyl)piperazin-2-yl]ethyl}pyridin-3-yl)-L-phenylalaninamide] | 7.89
22 | O=C(C[C@@H](c1ccc(Cl)cc1)C1CCS(=O)(=O)CC1)Nc1cccc(F)c1CC[C@H]1CNCCN1S(=O)(=O)c1ccccc1 [Example 36, (3R)-3-(4-chlorophenyl)-3-(1,1-dioxidotetrahydro-2H-thiopyran-4-yl)-N-(3-fluoro-2-{2-[(2S)-1-(phenylsulfonyl)piperazin-2-yl]ethyl}phenyl) propanamide] | 7.54
